Test: Anderson Cascade impaction analysis of dry powder blend in blister strip
Type: physicochemical
Conditions: 0.8% w/w drug in milled lactose blend, 13 mg per blister
Procedure: A blend was prepared containing 0.8% w/w 6α,9α-difluoro-17α-[(2-furanylcarbonyl)oxy]-11β-hydroxy-16α-methyl-3-oxo-androsta-1,4-diene-17β-carbothioic acid S-fluoromethyl ester, prepared as particles according to the invention, and 99.2% w/w milled lactose (wherein the mean particle size is of the range 60-90 μm, and not greater than 15% of particles have a MMD of less than 15 μm).
The above composition was blended for 10 minutes at 600 rpm in a 2.5 litre bowl QMM Micromixer. A peelable blister strip containing 14 blisters, each filled with 13 mg of the powder formulation described above was prepared.
Anderson Cascade impaction analysis of this product was performed initially and after 1 month storage at 30° C. and 65% relative humidity as shown in Table 1 below.

SMILES: C[C@]12C[C@H](O)[C@@]3(F)C(C[C@H](F)C4=CC(=O)C=C[C@@]43C)C1C[C@](C)(OC(=O)c1ccco1)[C@@H]2C(=O)SCF (some centres unmarked) [Micronised Drug, reference compound]
- Respirable fraction (% of Total Emitted Dose) (1 month @ 30° C./65% Relative Humidity): 25.1 % of Total Emitted Dose
- Respirable fraction (% of Total Emitted Dose) (Initial): 26.6 % of Total Emitted Dose
